Results published in patent US8691838B2, “Heterocycles as protein kinase inhibitors” (Amgen Inc., priority 2008, dated 2014).

biological target: c-Met (Homo sapiens, UniProt P08581); test: c-Met receptor assay (HTRF kinase assay with GST-cMet (P) enzyme, gastrin substrate)
Sequence (P08581 1058-1365): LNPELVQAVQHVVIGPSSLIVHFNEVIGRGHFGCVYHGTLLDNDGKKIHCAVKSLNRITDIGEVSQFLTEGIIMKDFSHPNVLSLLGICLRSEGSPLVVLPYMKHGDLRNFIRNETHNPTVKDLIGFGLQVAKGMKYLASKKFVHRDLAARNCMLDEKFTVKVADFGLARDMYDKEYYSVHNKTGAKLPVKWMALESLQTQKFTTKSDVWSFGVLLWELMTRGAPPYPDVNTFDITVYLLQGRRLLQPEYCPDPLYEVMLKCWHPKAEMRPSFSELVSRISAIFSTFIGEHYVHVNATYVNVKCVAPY
Method: A Kinase reaction Buffer was prepared as follows: 60 mM HEPES pH 7.4; 50 mM NaCl; 20 mM MgCl2; 5 mM MnCl2. When the assay was carried out, the following ingredients were freshly added: 2 mM DTT; 0.05% BSA; 0.1 mM Na3OV4.
Then incubated the plate at RT for 30 min.
KM ATP and KM gastrin for various enzymes were determined by HTRF/^33P labeling and HTRF methods.

Compared with CC(c1ccc2ncccc2c1)n1nnc2c(=O)[nH]ccc21 (racemic) [Example 10, (R/S)-1-(1-(quinolin-6-yl)ethyl)-1H-[1,2,3]triazolo[4,5-c]pyridin-4(5H)-one], Cc1cc(N2CCc3nnn([C@@H](C)c4ccc5ncccc5c4)c3C2=O)sn1 [Example 4, (S)-5-(3-methylisothiazol-5-yl)-3-(1-(quinolin-6-yl)ethyl)-6,7-dihydro-3H-[1,2,3]triazolo[4,5-c]pyridin-4(5H)-one] is 58-fold lower in Ki: 461 nM for the first, 8 nM for the second. The second binds more tightly here.

First: O=C1c2c(nnn2Cc2ccc3ncccc3c2)CCN1c1ccccc1 [Example 1, 5-phenyl-3-(quinolin-6-ylmethyl)-6,7-dihydro-3H-[1,2,3]triazolo[4,5-c]pyridin-4(5H)-one]
Second: Cc1cc(N2CCc3nnn(Cc4ccc5ncccc5c4)c3C2=O)sn1 [Example 2, 5-(3-methylisothiazol-5-yl)-3-(quinolin-6-ylmethyl)-6,7-dihydro-3H-[1,2,3]triazolo[4,5-c]pyridin-4(5H)-one]
The Ki of the first is 30-fold higher: 366 nM for the first, 12 nM for the second. The second binds more tightly here.

First: Cc1cc(N2CCc3nnn([C@H](C)c4ccc5ncccc5c4)c3C2=O)sn1 [Example 5, (R)-5-(3-methylisothiazol-5-yl)-3-(1-(quinolin-6-yl)ethyl)-6,7-dihydro-3H-[1,2,3]triazolo[4,5-c]pyridin-4(5H)-one]
Second: C[C@@H](c1ccc2ncccc2c1)n1nnc2ccn(Cc3ccccc3)c(=O)c21 [Example 31, (S)-5-benzyl-3-(1-(quinolin-6-yl)ethyl)-3H-[1,2,3]triazolo[4,5-c]pyridin-4(5H)-one]
The Ki of the first is 8.3-fold lower: 132 nM for the first, 1090 nM for the second. The first binds more tightly here.

Compared with C[C@@H](c1ccc2ncccc2c1)n1nnc2ccn(-c3ccc(Cl)c(C(F)(F)F)c3)c(=O)c21 [Example 29, (S)-5-(4-chloro-3-(trifluoromethyl)phenyl)-3-(1-(quinolin-6-yl)ethyl)-3H-[1,2,3]triazolo[4,5-c]pyridin-4(5H)-one], C[C@H](c1ccc2ncccc2c1)n1nnc2ccn(-c3ccc(Cl)c(C(F)(F)F)c3)c(=O)c21 [Example 30, (R)-5-(4-chloro-3-(trifluoromethyl)phenyl)-3-(1-(quinolin-6-yl)ethyl)-3H-[1,2,3]triazolo[4,5-c]pyridin-4(5H)-one] is 140-fold higher in Ki: 3.4 nM for the first, 473 nM for the second. The first binds more tightly here.

For C[C@H](c1ccc2ncccc2c1)n1nnc2ccn(Cc3ccccc3)c(=O)c21 [Example 32, (R)-5-benzyl-3-(1-(quinolin-6-yl)ethyl)-3H-[1,2,3]triazolo[4,5-c]pyridin-4(5H)-one], the Ki was 1310 nM.
